US20080039528A1, “Zinc finger ejectors and methods of use thereof” (KANSAS STATE UNIVERSITY RESEARCH FOUNDATION, priority 2004, published 2008)
Read-outs that look alike come from different tables or passages of the source.

Tests used:
[1] = system: L. donovani axenic amastigote-like parasites; assay: Inhibition of the growth of L. donovani axenic amastigotes (3-day CellTiter 96 assay); type: cell-based, Leishmania donovani; details: 3-day assay
Experimental: Inhibition of the growth of L. donovani parasites. A reported method for the inhibition of the growth of L. donovani parasites was followed. L. donovani axenic amastigotes were maintained in modified RPMI medium as previously described. Inhibition of growth by the compounds was measured in a 3-day assay using the tetrazolium dye-based CellTiter 96 Aqueous Non-Radioactive Cell Proliferation Assay Kit (Promega, Madison, Wis., USA) as previously described. The known anti-leishmaniasis drug, pentamidine, was used as a control.

P. falciparum W2 = assay: Inhibition of the growth of P. falciparum W2 clone ([3H]-hypoxanthine uptake); type: cell-based, Plasmodium falciparum; details: for IC50: read-out: W2, IC50; for IC90: read-out: W2, IC90
Experimental: (§1) Inhibition of the growth of P. falciparum. A reported method for the inhibition of the growth of P. falciparum was followed. The incubation period of the parasites was 66 h and the starting parasitemia was 0.2% with a 1% hematocrit. The medium used was RPMI-1640 culture medium with no folate or p-aminobenzoic acid and 10% normal heat-inactivated human plasma, and P. falciparum D6 and W2 clones were used. D6 is a clone from the Sierra I/UNC isolates and is susceptible to chloroquine and pyrimethamine but has reduced susceptibilities to mefloquine and halofantrine. W2 is a clone of the Indochina I isolate and is resistant to chloroquine and pyrimethamine but susceptible to mefloquine. […] The diluted compounds were transferred ([…]) to test plates, 200 µL of parasitized erythrocytes (0.2% parasitemia and 1% hematocrit) was added, and was incubated at 37° C. in a controlled environment of 5% CO2, 5% O2, and 90% N2. After 42 h, 25 µL of [^3H]-hypoxanthine was added and the plates were incubated for an additional 24 h. The plates were then frozen at −70° C. to lyse the red cells and later thawed and harvested onto glass fiber filter mats by using a 96-well cell harvester. The filter mats were counted in a scintillation counter and the data were downloaded with the custom, automated analysis software developed by WRAIR. For each compound, the concentration-response profile was determined and 50% inhibitory concentrations (IC50) were determined by using a nonlinear, logistic dose-response analysis program.

P. falciparum D6 = assay: Inhibition of the growth of P. falciparum D6 clone ([3H]-hypoxanthine uptake); type: cell-based, Plasmodium falciparum; details: for IC50: read-out: D6, IC50; for IC90: read-out: D6, IC90; for inhibitory activities (in words): P. falciparum D6 and W2 and L. donovani parasites, summary statement
Experimental: as §1

Solubility (qualitative) = type: physicochemical
[2] = P. falciparum W2 intraerythrocytic forms, 66 h incubation
[3] = P. falciparum D6 intraerythrocytic forms, 66 h incubation
[4] = Plasmodium falciparum, W2, 66 h
[5] = Plasmodium falciparum, D6, 66 h
[6] = Plasmodium falciparum, W2, 66 h, P. falciparum W2 intraerythrocytic forms, 66 h incubation
[7] = Plasmodium falciparum, D6, 66 h, P. falciparum D6 intraerythrocytic forms, 66 h incubation
[8] = Plasmodium falciparum, P. falciparum W2 intraerythrocytic forms, 66 h incubation

| IC50 (P. falciparum W2; [2]) | IC50 (P. falciparum D6; [3]) | IC50 (P. falciparum W2; [6]) | IC50 (P. falciparum D6; [7]) | Compound | inhibitory activities (in words) (P. falciparum D6) | other results |
| --- | --- | --- | --- | --- | --- | --- |
| – | – | – | – | N=C(N)c1ccc(OCCCCCOc2ccc(C(=N)N)cc2)cc1 [Pentamidine, reference compound] | – | IC50 ([1]; Leishmania donovani, 72 h): 1190 ± 120 nM |
| 3200 nM | 2200 nM | – | – | O=C(NO)c1ccc(OCCCCCOc2ccc(C(=O)NO)cc2)cc1 [Bishydroxamic acid 1, 1,5-Bis-[4-(hydroxyaminocarbonyl)phenoxy]pentane] | – | IC90 (P. falciparum D6; [3]): 6200 nM |
| – | – | – | – | CCN(CC)CCCC(C)Nc1ccnc2cc(Cl)ccc12 (centres unmarked) [Chloroquine, reference compound] | – | IC50 (P. falciparum W2; [4]): 450 nM; IC90 (P. falciparum W2; [4]): 650 nM; IC50 (P. falciparum D6; [5]): 13 nM; IC90 (P. falciparum D6; [5]): 14 nM |
| – | – | > 60000 nM | > 60000 nM | COC(=O)c1ccc(OC/C=C/COc2ccc(C(=O)OC)cc2)cc1 [Bisester 7, trans-1,4-Bis-(4-methoxycarbonylphenoxy)-2-butene] | do not show inhibitory activities | – |
| 350 nM | 240 nM | – | – | O=C(NO)c1ccc(OCCOCCOc2ccc(C(=O)NO)cc2)cc1 [Bishydroxamic acid 3, 2,2′-Bis-[(4-hydroxyaminocarbonyl)phenoxy]ethyl ether] | – | IC50 [1]: 18500 ± 6000 nM; solubility in DMSO (Solubility (qualitative); DMSO): soluble in DMSO; solubility in water (Solubility (qualitative)): only slightly soluble in water; IC90 (P. falciparum W2; [2]): 600 nM; IC90 (P. falciparum D6; [3]): 470 nM |
| – | – | > 60000 nM | > 60000 nM | O=C(O)c1ccc(OCCCCCOc2ccc(C(=O)O)cc2)cc1 [Biscarboxylic acid 6, 1,5-Bis-[4-(hydroxycarbonyl)phenoxy]pentane] | do not show inhibitory activities | – |
| – | – | – | 13 nM | OC(c1cc(C(F)(F)F)nc2c(C(F)(F)F)cccc12)C1CCCCN1 (centres unmarked) [Mefloquine, reference compound] | – | IC50 (P. falciparum W2; Plasmodium falciparum, W2, P. falciparum W2, value in nM): 8 nM; IC90 (P. falciparum W2; [8]): 15 nM; IC90 (P. falciparum D6; [7]): 240 nM |
| – | – | > 60000 nM | > 60000 nM | COC(=O)c1ccc(OCCCCCOc2ccc(C(=O)OC)cc2)cc1 [Bisester 5, 1,5-Bis-(4-methoxycarbonylphenoxy)pentane] | do not show inhibitory activities | – |
| > 38000 nM | > 38000 nM | – | – | O=C(O)c1ccc(OCCOCCOc2ccc(C(=O)O)cc2)cc1 [Biscarboxylic acid 10, 2,2′-Bis-[(4-hydroxycarbonyl)phenoxy]ethyl ether] | do not show inhibitory activities | IC50 [1]: > 100000 nM |
| – | – | > 60000 nM | > 60000 nM | O=C(O)c1ccc(OC/C=C/COc2ccc(C(=O)O)cc2)cc1 [Biscarboxylic acid 8, trans-1,4-Bis-[4-(hydroxycarbonyl)phenoxy]-2-butene] | do not show inhibitory activities | – |
| 1090 nM | 1000 nM | – | – | O=C([N-]O)c1ccc(OCCCCCOc2ccc(C(=O)[N-]O)cc2)cc1.[Na+].[Na+] [Bishydroxamic acid sodium salt 11, 1,5-Bis-[4-(hydroxy-sodio-aminocarbonyl)phenoxy]pentane] | – | solubility in water (Solubility (qualitative)): soluble in water; IC90 (P. falciparum D6; [3]): 2000 nM |
| – | – | 1050 nM | 690 nM | O=C(NO)c1ccc(OC/C=C/COc2ccc(C(=O)NO)cc2)cc1 [Bishydroxamic acid 2, trans-1,4-Bis[4-(hydroxyaminocarbonyl)phenoxy]-2-butene] | – | IC90 (P. falciparum W2; [8]): 2570 nM; IC90 (P. falciparum D6; [7]): 1800 nM |
| 360 nM | 260 nM | – | – | O=C([N-]O)c1ccc(OCCOCCOc2ccc(C(=O)[N-]O)cc2)cc1.[Na+].[Na+] [Bishydroxamic acid sodium salt 12, 2,2′-Bis-[(4-hydroxy-sodio-aminocarbonyl)phenoxy]ethyl ether] | – | IC50 [1]: 37400 ± 14000 nM; solubility in water (Solubility (qualitative)): soluble in water; IC90 (P. falciparum W2; [2]): 600 nM; IC90 (P. falciparum D6; [3]): 520 nM |

| Compound | IC50 (P. falciparum W2; [2]) | IC50 (P. falciparum D6; [3]) | IC50 (P. falciparum W2; [6]) | IC50 (P. falciparum D6; [7]) | inhibitory activities (in words) (P. falciparum D6) | other results |
| --- | --- | --- | --- | --- | --- | --- |
| COC(=O)c1ccc(OCCOCCOc2ccc(C(=O)OC)cc2)cc1 [Bisester 9, 2,2′-Bis-(4-methoxycarbonylphenoxy)ethyl ether] | > 60000 nM | > 60000 nM | – | – | do not show inhibitory activities | IC50 [1]: > 100000 nM |
